Here are results for one compound from paper PMC11494886, “Discovery and design of molecular glue enhancers of CDK12–DDB1 interactions for targeted degradation of cyclin K” (RSC Chemical Biology, 2024).

The target in one assay is T1, DDB1 (Homo sapiens, UniProt Q16531, DEL396-705).
T1 construct: made in house; host or cells: Spodoptera frugiperda SF9 insect cells (Bac-to-Bac)
Nature of the assay: Microscale thermophoresis, DDB1 without CDK12/cyclin K. It counts as binding. Conditions: MST, absence of CDK12/cyclin K. The procedure:
Finally, the capacity of small molecules to induce a ternary complex between CDK12/cyclin K and DDB1 in vitro was assessed by microscale thermophoresis (MST). […]
The gene of human DDB1 (Uniprot: Q16531) with a beta-propeller B domain deletion (ΔBPB: a.a. 396–705 deleted) was subcloned into pFastBac1 vector with an N-terminal His8-tag and a HRV 3C cleavage site (GeneScript), and the recombinant protein was expressed in Spodoptera frugiperda SF9 insect cells in sf900™ II SFM culture medium using the Bac to Bac™ baculovirus expression system (Gibco™). […]
A protocol to assess ternary binding of molecular glues with CDK12/cycK and DDB1 by MST was established using published procedures for PROTAC interaction with bromodomains and E3 ubiquitin ligases.[38] […] After 5 min incubation at room temperature, the samples were loaded in MO-K022 standard treated capillaries (NanoTemper Technologies) and measured by a Monolith NT.115 Pico instrument (NanoTemper Technologies) at 40% MST power and 20% excitation power (auto-detect) on Pico-Red detector at 22 °C. MST traces were recorded using standard parameters: 5 s MST power off, 30 s MST power on and 5 s MST power off. […]
For orientation: Microscale thermophoresis detects binding through changes in fluorescence in a small temperature gradient.

A further assay has as its system cyclin K. Nature of the assay: Immunoblot of cyclin K levels in MDA-MB-231 cells. It counts as cell-based, human. Conditions: SR-4835 500 nM, SR-4784 1-2 μM 2 hours, SR-4784-PAP 2 μM 2 hours. The procedure:
THZ531 was used as a negative control as it is known to make a covalent bond with Cys1039 in a C-terminal extension of the kinase domain, thereby preventing this helix-loop-helix (HLH)-like fold from binding in a cleft between the DDB1 BPA and BPC domains (Fig. 1B, right panels). […] An immunofluorescence-based assay developed for visualizing loss of nuclear cyclin K also confirmed the above observations (Fig. 1H and Fig. S1, ESI ^†).
Total cell lysates were prepared using RIPA lysis buffer (Millipore Sigma) supplemented with protease and phosphatase inhibitors (Roche). Protein concentrations were estimated using the BCA protein assay kit (Pierce, Thermo Fisher Scientific). Equal amounts of proteins were separated using NuPAGE 4–12% Bis-Tris gels (Thermo Fisher Scientific). For CLICK chemistry pulldown experiments, proteins in the eluates were resolved using 3–8% Tris–acetate gels (Thermo Fisher Scientific). Proteins were transferred to nitrocellulose membranes using NuPAGE transfer buffer (Thermo Fisher Scientific). Membranes were blocked in LI-COR blocking buffer for 1 hour at room temperature and then probed with primary antibodies diluted in the same blocking buffer overnight at 4 °C. To detect the primary antibodies, membranes were incubated with IR-680 or IR-800 conjugated secondary antibodies (LI-COR) diluted in LI-COR blocking buffer at room temperature for 1 hour. Washes with 0.01% Tween-phosphate buffer were performed after primary and secondary antibody incubation steps. Signals from the membrane were recorded by scanning on a LI-COR Odyssey imager. Bands were quantified using Image Studio Lite (LI-COR Biosciences) or the ImageJ program.
To visualize the degradation of cyclin K, total cell lysates were subjected to SDS-PAGE and western blotting.
(In western blotting, separated proteins are transferred to a membrane and probed.)

T1 sequence (Q16531 with tags, fused parts or gaps DEL396-705): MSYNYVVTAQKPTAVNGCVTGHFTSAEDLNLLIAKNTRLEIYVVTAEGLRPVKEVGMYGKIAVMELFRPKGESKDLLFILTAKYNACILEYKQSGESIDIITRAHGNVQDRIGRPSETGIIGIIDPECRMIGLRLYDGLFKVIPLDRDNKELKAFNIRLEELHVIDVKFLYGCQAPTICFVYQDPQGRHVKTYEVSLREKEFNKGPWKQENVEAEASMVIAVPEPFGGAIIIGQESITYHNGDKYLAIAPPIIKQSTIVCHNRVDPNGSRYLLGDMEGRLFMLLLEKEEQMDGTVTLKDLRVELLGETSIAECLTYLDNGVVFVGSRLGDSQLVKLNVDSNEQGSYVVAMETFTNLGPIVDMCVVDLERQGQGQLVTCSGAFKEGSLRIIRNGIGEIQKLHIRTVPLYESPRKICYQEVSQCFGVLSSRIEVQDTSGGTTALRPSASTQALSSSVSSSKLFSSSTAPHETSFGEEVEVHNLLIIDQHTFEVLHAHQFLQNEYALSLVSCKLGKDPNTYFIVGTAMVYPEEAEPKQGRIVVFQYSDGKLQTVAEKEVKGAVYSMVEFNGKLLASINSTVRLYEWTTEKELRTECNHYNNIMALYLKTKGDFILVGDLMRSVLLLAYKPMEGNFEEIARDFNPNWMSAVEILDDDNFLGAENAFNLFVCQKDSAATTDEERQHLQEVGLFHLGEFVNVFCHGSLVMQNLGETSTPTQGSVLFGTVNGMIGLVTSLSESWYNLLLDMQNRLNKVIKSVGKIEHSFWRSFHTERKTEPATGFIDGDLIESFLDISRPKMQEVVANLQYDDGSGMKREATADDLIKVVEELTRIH

Turning to `Cn1cc(-n2cnc3c(NCc4nc5cc(Cl)c(Cl)cc5[nH]4)nc(N4CCOCC4)nc32)cn1` [SR-4835], on DDB1, the “binding to DDB1” value is listed as “did not show binding potential for DDB1”. The “cyclin K degradation (immunoblot)” value with cyclin K was “rapidly degrades cyclin K”.
